# Data published in patent publication US8148391B2 (Cephalon, Inc., priority 2006, dated 2012).
# Read-outs that look alike come from different tables or passages of the source.
# How the values were obtained:
# [1] = target: T1, baculovirus-expressed ALK (Homo sapiens, UniProt Q9UM73); assay: ALK Kinase Assay (ELISA-type, time-resolved fluorescence); type: biochemical
# T1 construct: host or cells: baculovirus expression system
# Method in brief: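 Plates coated with phospholipase C-γ substrate (10 μg/mL in TBS); reaction started with 30 ng/ml ALK and run 15 min at 37° C. Phosphorylated substrate detected with Eu-N1-labeled PT66 antibody. IC50 from sigmoidal variable-slope fit of percent inhibition vs log concentration.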
# [2] = target: T2, c-Met (cytoplasmic domain) (Homo sapiens, UniProt P08581); assay: c-Met Kinase Assay (same methods as for ALK, with modifications); type: biochemical
# T2 construct: 10 ng/mL c-Met (cytoplasmic domain, Invitrogen Corporation #PV3143); purchased Invitrogen Corporation PV3143
# Method in brief: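 Plates were coated with phospholipase C-γ substrate (10 μg/mL) in TBS, and the reaction was started with 10 ng/mL c-Met cytoplasmic domain and run 15 min at 37 °C. Phosphoproduct was detected with Eu-N1-labelled PT66 antibody. IC50 came from a variable-slope sigmoidal fit of percent inhibition vs log concentration.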
# [3] = 1 μM ATP (Km level), 30 ng/ml ALK, 37° C., 15 minutes, read-out: ALK Activity (ALK kinase inhibition, IC50 class)
# [4] = 1 μM ATP (Km level), 10 ng/mL c-Met, read-out: cMet Activity (c-Met kinase inhibition, IC50 class)
# [5] = ALK kinase inhibition, 1 μM ATP (Km level), read-out: ALK Activity
# [6] = c-Met kinase inhibition, 1 μM ATP (Km level), read-out: cMet Activity
# [7] = ALK kinase inhibition, 1 μM ATP, read-out: ALK Activity
# [8] = c-Met kinase inhibition, 1 μM ATP, read-out: cMet Activity
# [9] = 1 μM ATP (Km level), read-out: ALK Activity (ALK Kinase Inhibition, IC50)
# [10] = 1 μM ATP (Km level), read-out: cMet Activity (c-Met Kinase Inhibition, IC50)
# T1 sequence (Q9UM73 19-1620): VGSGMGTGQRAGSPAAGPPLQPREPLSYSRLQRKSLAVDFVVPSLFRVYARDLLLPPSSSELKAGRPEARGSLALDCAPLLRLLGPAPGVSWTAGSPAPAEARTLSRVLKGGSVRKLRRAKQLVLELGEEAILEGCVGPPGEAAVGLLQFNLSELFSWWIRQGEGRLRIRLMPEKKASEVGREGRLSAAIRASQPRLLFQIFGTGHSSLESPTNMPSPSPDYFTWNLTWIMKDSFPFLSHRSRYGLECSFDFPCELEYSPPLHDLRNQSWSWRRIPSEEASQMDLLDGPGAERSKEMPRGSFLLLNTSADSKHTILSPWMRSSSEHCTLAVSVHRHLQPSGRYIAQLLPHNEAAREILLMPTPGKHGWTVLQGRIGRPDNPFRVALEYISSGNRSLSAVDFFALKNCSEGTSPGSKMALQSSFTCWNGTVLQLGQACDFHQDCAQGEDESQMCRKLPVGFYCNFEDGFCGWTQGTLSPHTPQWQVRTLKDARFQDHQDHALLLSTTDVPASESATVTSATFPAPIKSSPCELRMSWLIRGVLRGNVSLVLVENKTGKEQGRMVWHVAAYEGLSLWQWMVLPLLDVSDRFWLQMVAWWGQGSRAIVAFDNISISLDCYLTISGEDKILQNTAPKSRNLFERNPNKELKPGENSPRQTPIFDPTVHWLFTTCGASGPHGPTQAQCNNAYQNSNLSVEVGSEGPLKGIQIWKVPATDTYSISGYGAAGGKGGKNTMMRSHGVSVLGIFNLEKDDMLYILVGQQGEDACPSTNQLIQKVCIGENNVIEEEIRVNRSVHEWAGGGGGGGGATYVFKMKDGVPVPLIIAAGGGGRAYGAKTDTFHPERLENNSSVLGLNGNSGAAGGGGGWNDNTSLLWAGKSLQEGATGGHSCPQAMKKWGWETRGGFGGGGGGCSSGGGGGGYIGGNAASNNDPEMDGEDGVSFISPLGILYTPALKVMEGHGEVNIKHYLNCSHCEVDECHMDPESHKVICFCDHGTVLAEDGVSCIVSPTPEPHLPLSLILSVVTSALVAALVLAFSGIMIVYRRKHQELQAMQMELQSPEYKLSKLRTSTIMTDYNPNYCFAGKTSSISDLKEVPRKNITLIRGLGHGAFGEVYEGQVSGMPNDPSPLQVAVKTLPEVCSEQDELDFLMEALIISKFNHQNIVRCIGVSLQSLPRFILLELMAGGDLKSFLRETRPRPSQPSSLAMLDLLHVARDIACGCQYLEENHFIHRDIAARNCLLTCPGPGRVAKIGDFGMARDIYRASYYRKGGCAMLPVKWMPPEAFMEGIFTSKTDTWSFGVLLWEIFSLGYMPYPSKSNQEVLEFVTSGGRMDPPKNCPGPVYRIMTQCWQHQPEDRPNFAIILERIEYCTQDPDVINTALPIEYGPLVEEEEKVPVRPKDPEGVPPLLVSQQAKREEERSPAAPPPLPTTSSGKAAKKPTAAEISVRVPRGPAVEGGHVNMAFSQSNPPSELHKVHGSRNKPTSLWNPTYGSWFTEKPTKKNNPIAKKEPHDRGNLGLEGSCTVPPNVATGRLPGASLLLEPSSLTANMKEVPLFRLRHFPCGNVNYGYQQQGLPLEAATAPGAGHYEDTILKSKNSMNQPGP
# T2 sequence (P08581 956-1390 limits assumed): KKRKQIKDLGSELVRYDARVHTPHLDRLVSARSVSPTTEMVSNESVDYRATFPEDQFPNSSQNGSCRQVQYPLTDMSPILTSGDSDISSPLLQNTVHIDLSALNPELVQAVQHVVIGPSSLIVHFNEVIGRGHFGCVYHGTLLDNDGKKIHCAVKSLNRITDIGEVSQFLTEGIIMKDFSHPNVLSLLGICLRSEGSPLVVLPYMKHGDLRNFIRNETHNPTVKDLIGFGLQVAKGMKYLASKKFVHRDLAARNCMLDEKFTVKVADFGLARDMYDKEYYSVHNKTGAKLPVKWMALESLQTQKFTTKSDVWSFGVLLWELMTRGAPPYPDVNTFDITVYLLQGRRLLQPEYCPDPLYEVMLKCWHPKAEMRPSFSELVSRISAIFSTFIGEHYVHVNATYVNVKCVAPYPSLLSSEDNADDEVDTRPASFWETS
smiles,measurement,setting,value
"COc1cc2c(cc1Nc1ncc(Cl)c(Nc3ccccc3-n3cccn3)n1)CCN(CC(=O)N(C)C)CC2 [Example 1320, 2-{7-[5-Chloro-4-(2-pyrazol-1-yl-phenylamino)-pyrimidin-2-ylamino]-8-methoxy-1,2,4,5-tetrahydro-benzo[d]azepin-3-yl}-N,N-dimethyl-acetamide]",IC50,[1]; [3],< 100 nM
same,IC50,[2]; [4],> 10000 nM
"CNC(=O)c1cc(C)ccc1Nc1nc(Nc2ccc3c(c2)CCN(CCOC)CC3)ncc1Cl [Example 308, 2-{5-Chloro-2-[3-(2-methoxy-ethyl)-2,3,4,5-tetrahydro-1H-benzo[d]azepin-7-ylamino]-pyrimidin-4-ylamino}-5,N-dimethyl-benzamide]",IC50,[1]; [5],< 100 nM
same,IC50,[2]; [6],< 100 nM
"CNC(=O)c1ccccc1Nc1nc(Nc2ccc3c(c2)CCCCN3C)ncc1Cl [Example 103, 2-[5-Chloro-2-(1-methyl-2,3,4,5-tetrahydro-1H-benzo[b]azepin-7-ylamino)-pyrimidin-4-ylamino]-N-methyl-benzamide]",IC50,[1]; [5],< 100 nM
same,IC50,[2]; [6],< 100 nM
"CC1(C)CCC(=O)Nc2ccc(Nc3ncc(Cl)c(N[C@@H]4CCCC[C@H]4NS(C)(=O)=O)n3)cc21 [Example 383, N-{(1R,2R)-2-[5-Chloro-2-(5,5-dimethyl-2-oxo-2,3,4,5-tetrahydro-1H-benzo[b]azepin-7-ylamino)-pyrimidin-4-ylamino]-cyclohexyl}-methanesulfonamide]",IC50,[1]; [5],< 100 nM
same,IC50,[2]; [6],1000 to 10000 nM
"COc1cc2c(cc1Nc1ncc(Cl)c(N[C@@H]3CCCC[C@H]3NS(C)(=O)=O)n1)CCC(NCC(F)F)CC2 (single isomer, unassigned) [Example 1057]",IC50,[1]; [3],< 100 nM
same,IC50,[2]; [4],> 10000 nM
"COCCN1CC(=O)Nc2cc(Nc3ncc(Cl)c(N[C@@H]4CCCC[C@H]4NS(C)(=O)=O)n3)c(OC)cc2C1 [Example 1664, N-(1R,2R)-(2-{5-Chloro-2-[7-methoxy-4-(2-methoxy-ethyl)-2-oxo-2,3,4,5-tetrahydro-1H-benzo[e][1,4]diazepin-8-ylamino]-pyrimidin-4-ylamino}-cyclohexyl)-methanesulfonamide]",IC50,[1]; [7],< 100 nM
same,IC50,[2]; [8],> 10000 nM
"CNC(=O)c1cccc(Cl)c1Nc1nc(Nc2ccc3c(c2)CCOC(=O)N3C)ncc1Cl [Example 1743, 3-Chloro-2-[5-chloro-2-(5-methyl-6-oxo-5,6,8,9-tetrahydro-7-oxa-5-aza-benzocyclohepten-2-ylamino)-pyrimidin-4-ylamino]-N-methyl-benzamide]",IC50,[1]; [7],1000 to 10000 nM
same,IC50,[2]; [8],< 100 nM
"CNS(=O)(=O)c1ccccc1Nc1nc(Nc2ccc3c(c2)C2CCC3CN(C(C)C)C2)ncc1Cl (stereo not shown) [Example 274, 2-[5-Chloro-2-(10-isopropyl-10-aza-tricyclo[6.3.2.0*2,7*]trideca-2,4,6-trien-4-ylamino)-pyrimidin-4-ylamino]-N-methyl-benzenesulfonamide]",IC50,[1]; [5],< 100 nM
same,IC50,[2]; [6],< 100 nM
"CCN1C(=O)CCCc2c1ccc(Nc1ncc(Cl)c(Nc3ccc(OC)cc3-n3cccn3)n1)c2OC [Example 613, 7-[5-Chloro-4-(4-methoxy-2-pyrazol-1-yl-phenylamino)-pyrimidin-2-ylamino]-1-ethyl-6-methoxy-1,3,4,5-tetrahydro-benzo[b]azepin-2-one]",IC50,[1]; [9],< 100 nM
same,IC50,[2]; [10],> 10000 nM
"COc1c(Nc2ncc(Cl)c(Nc3ccccc3-n3cccn3)n2)ccc2c1CCC(N1CCOCC1)CC2 (stereo not shown) [Example 901, 5-Chloro-N*2*-(1-methoxy-7-morpholin-4-yl-6,7,8,9-tetrahydro-5H-benzocyclohepten-2-yl)-N*4*-(2-pyrazol-1-yl-phenyl)-pyrimidine-2,4-diamine]",IC50,[1]; [9],< 100 nM
same,IC50,[2]; [10],1000 to 10000 nM
"COc1cc2c(cc1Nc1ncc(Cl)c(Nc3ccc(N4CCOCC4)c(OC)c3)n1)CCN(CC(=O)N(C)C)CC2 [Example 803, 2-{7-[5-Chloro-4-(3-methoxy-4-morpholin-4-yl-phenylamino)-pyrimidin-2-ylamino]-8-methoxy-1,2,4,5-tetrahydro-benzo[d]azepin-3-yl}-N,N-dimethyl-acetamide]",IC50,[1]; [9],< 100 nM
same,IC50,[2]; [10],> 10000 nM
"NC(=O)[C@@H]1[C@H]2CC[C@H](C2)[C@@H]1Nc1nc(Nc2ccc3c(c2)CCC(NCC(F)(F)F)CC3)ncc1Cl (stereo partly drawn) [Example 654, (1S,2R,3S,4R)-3-{5-Chloro-2-[7-(2,2,2-trifluoro-ethylamino)-6,7,8,9-tetrahydro-5H-benzocyclohepten-2-ylamino]-pyrimidin-4-ylamino}-bicyclo[2.2.1]heptane-2-carboxylic acid amide]",IC50,[1]; [9],< 100 nM
same,IC50,[2]; [10],100 to 1000 nM
"CCN1C(=O)CCCc2cc(Nc3ncc(Cl)c(N[C@@H]4CCCC[C@H]4N(C)S(C)(=O)=O)n3)c(OC)cc21 [Example 1678, N-{(1R,2R)-2-[5-Chloro-2-(1-ethyl-8-methoxy-2-oxo-2,3,4,5-tetrahydro-1H-benzo[b]azepin-7-ylamino)-pyrimidin-4-ylamino]-cyclohexyl}-N-methyl-methanesulfonamide]",IC50,[1]; [7],< 100 nM
same,IC50,[2]; [8],1000 to 10000 nM
"Cc1noc(-c2ccccc2Nc2nc(Nc3ccc4c(c3)CCOC(=O)N4C)ncc2Cl)n1 [Example 1784, 2-{5-Chloro-4-[2-(3-methyl-[1,2,4]oxadiazol-5-yl)-phenylamino]-pyrimidin-2-ylamino}-5-methyl-8,9-dihydro-5H-7-oxa-5-aza-benzocyclohepten-6-one]",IC50,[1]; [7],1000 to 10000 nM
same,IC50,[2]; [8],1000 to 10000 nM
"CCN1CCc2ccc(Nc3ncc(Cl)c(Nc4ccc(N5CCOCC5)cc4OC)n3)cc2CC1 [Example 442, 5-Chloro-N*2*-(3-ethyl-2,3,4,5-tetrahydro-1H-benzo[d]azepin-7-yl)-N*4*-(2-methoxy-4-morpholin-4-yl-phenyl)-pyrimidine-2,4-diamine]",IC50,[1]; [5],< 100 nM
same,IC50,[2]; [6],1000 to 10000 nM
"COCCN1CCc2ccc(Nc3ncc(Cl)c(Nc4ccccc4C(=O)NCCN4CCN(C)CC4)n3)cc2CC1 [Example 1402, 2-{5-Chloro-2-[3-(2-methoxy-ethyl)-2,3,4,5-tetrahydro-1H-benzo[d]azepin-7-ylamino]-pyrimidin-4-ylamino}-N-[2-(4-methyl-piperazin-1-yl)-ethyl]-benzamide]",IC50,[1]; [3],100 to 1000 nM
same,IC50,[2]; [4],1000 to 10000 nM
"CNC(=O)c1c(F)cccc1Nc1nc(Nc2ccc3c(c2)CCOC(=O)N3C)ncc1Cl [Example 1756, 2-[5-Chloro-2-(5-methyl-6-oxo-5,6,8,9-tetrahydro-7-oxa-5-aza-benzocyclohepten-2-ylamino)-pyrimidin-4-ylamino]-6-fluoro-N-methyl-benzamide]",IC50,[1]; [7],< 100 nM
same,IC50,[2]; [8],< 100 nM
"COc1cc2c(cc1Nc1ncc(Cl)c(N[C@H]3[C@@H](C(N)=O)[C@@H]4C=C[C@H]3C4)n1)CCC(NCCO)CC2 (single isomer, unassigned) [Example 1097]",IC50,[1]; [3],< 100 nM
same,IC50,[2]; [4],> 10000 nM
"CCN1C(=O)CCC(C)(C)c2ccc(Nc3ncc(Cl)c(Nc4c(F)cccc4S(=O)(=O)C(C)C)n3)cc21 [Example 1252, 8-{5-Chloro-4-[2-fluoro-6-(propane-2-sulfonyl)-phenylamino]-pyrimidin-2-ylamino}-1-ethyl-5,5-dimethyl-1,3,4,5-tetrahydro-1-benzazepin-2-one]",IC50,[1]; [3],< 100 nM
same,IC50,[2]; [4],1000 to 10000 nM
"CCN1C(=O)CCCc2c1ccc(Nc1ncc(Cl)c(NC3C4C=CC(C4)C3C(=O)NC(C)C)n1)c2OC (stereo not drawn) [Example 603, (2-exo-3-exo)-3-[5-Chloro-2-(1-ethyl-6-methoxy-2-oxo-2,3,4,5-tetrahydro-1H-benzo[b]azepin-7-ylamino)-pyrimidin-4-ylamino]-bicyclo[2.2.1]hept-5-ene-2-carboxylic acid isopropylamide]",IC50,[1]; [9],100 to 1000 nM
same,IC50,[2]; [10],> 10000 nM
